Assay results published in patent publication US20250041476A1, “ENHANCED PERFORMANCE SOLUTION FOR TISSUE GRAFTS” (The Curators of the University of Missouri, priority 2020, published 2025).

Experiments:
[1] = Modulated differential scanning calorimetry of tissue scaffolds; assay type: physicochemical
Protocol: Following crosslinking, five specimens (n=5) from the 7 treatment types were rinsed in DI water and placed in an aluminum pan with a hermetic lid. The treatment types were EDC/NHS, untreated, 15 minutes crosslinking with 3 mM genipin, 4 hours crosslinking with 3 mM genipin, 8 hours crosslinking with 3 mM genipin, 24 hours crosslinking with 3 mM genipin, and 24 hours crosslinking with 10 mM genipin. The 10 mM treatment type was added to verify that increasing the genipin concentration would further increase the amount of crosslinking that occurred. The reference pan consisted of an aluminum pan containing […] of double distilled water and sealed with a hermetic lid. Each specimen was then subjected to modulated differential scanning calorimetry using a Q2000 DSC (TA Instruments, New Castle, DE, USA) to raise the temperature from 5° C. to 120° C. at a rate of 5° C. per minute with a modulation of ±0.64° C. every 80 s. The mean denaturation temperature is reported.

[2] = tested on: L929 mouse connective tissue fibroblasts; test: Cell proliferation reagent WST-1 cell viability assay on scaffolds; assay type: cell-based; details: scaffolds crosslinked with 3 mM genipin
Protocol: L-929 mouse fibroblast cells were obtained from ATCC (Manassas, VA). They were cultured in EMEM (ATCC, Manassas, VA, USA) supplemented with 10% (v/v) horse serum (Sigma-Aldrich, St. Louis, MO, USA) and 200 U mL^−1 penicillin-streptomycin (Sigma-Aldrich, St. Louis, MO, USA) solution in an incubator at 37° C. and 5% CO2. 1 mL of 3×10^4 cell/mL cell solution was plated on each scaffold and allowed to grow for 1, 3, 7, or 10 days with fresh media being replaced every […].
Cell proliferation reagent WST-1 (Roche Diagnostics Corporation, Indianapolis, IN, USA) was used to evaluate the biocompatibility of the scaffolds. The WST-1 assay works via the use of tetrazolium salts. The salts were added to wells containing cells and the tissue discs. The tetrazolium salts were then cleaved to formazan by mitochondrial dehydrogenase activity. This correlates to the number of metabolically active cells. The resulting formazan was quantified using UV-vis absorbance measurements. […] After gentle mixing, 100 μL was removed from each well and absorbance readings were acquired using a Tecan Safire II plate reader. The resulting values were then calculated relative to the absorbance found on the untreated control scaffold. […]

[3] = tested on: integrin β1; details: chondrocytes; cited from earlier work

Denaturation temperature of tissue scaffold ([1]; 15 minutes of genipin crosslinking, 3 mM, vs untreated): significantly increases
Denaturation temperature of tissue scaffold ([1]; 24 hours of crosslinking, 3 mM genipin): significant increase
Denaturation temperature of tissue scaffold ([1]; higher genipin concentration (10 mM vs 3 mM), 24 hours): significantly increased
SMILES: COC(=O)C1=CO[C@@H](O)[C@@H]2C(CO)=CC[C@H]12 [genipin, methyl (1S,2R,6S)-2-hydroxy-9-(hydroxymethyl)-3-oxabicyclo[4.3.0]nona-4,8-diene-5-carboxylate]
Cytotoxicity (biocompatibility results) [2]: not cytotoxic
mRNA expression of integrin β1 [3]: halved
